In general, IC50 refers to the midpoint of a concentration-inhibition curve. A low value points to higher potency.

For assay [1], the target named is T1, HIS-TGFβR1 T204D (Homo sapiens, UniProt P36897, T204D).
T1 sequence (P36897 34-503 T204D): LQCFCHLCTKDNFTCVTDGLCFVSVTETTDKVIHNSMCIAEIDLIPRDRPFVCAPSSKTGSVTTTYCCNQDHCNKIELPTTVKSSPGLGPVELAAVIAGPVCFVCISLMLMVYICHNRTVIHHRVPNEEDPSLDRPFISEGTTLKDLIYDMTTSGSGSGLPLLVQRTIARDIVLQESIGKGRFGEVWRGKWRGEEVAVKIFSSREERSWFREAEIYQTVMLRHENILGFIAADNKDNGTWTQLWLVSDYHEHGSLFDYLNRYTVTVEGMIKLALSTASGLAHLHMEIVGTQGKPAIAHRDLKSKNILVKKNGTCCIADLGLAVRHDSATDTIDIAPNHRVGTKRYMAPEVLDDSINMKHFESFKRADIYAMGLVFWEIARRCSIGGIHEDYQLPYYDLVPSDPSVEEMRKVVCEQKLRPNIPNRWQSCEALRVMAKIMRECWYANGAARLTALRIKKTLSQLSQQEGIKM
Put plainly: HTRF probe-displacement assay with HIS-TGFβR1 T204D. It counts as binding. The following applies: 1 nM HIS-TGFβR1 T204D, labeled probe at Kd, 1 hour at room temperature. In outline:
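Binding read as HTRF probe displacement with 1 nM HIS-tagged kinase, 0.2 nM anti-HIS antibody, labelled probe at Kd and 0.5% DMSO, 1 h at room temperature (Ex 340, Em 520/495 nm). Eleven-point dose response normalised to no-enzyme and vehicle controls; IC50 from non-linear regression.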
A general note: Time-resolved FRET reads energy transfer from a long-lived donor to a nearby acceptor.

For assay [2], the target named is HIS-TGFβR2 WT (Homo sapiens, UniProt P37173). Put plainly: HTRF probe-displacement assay with HIS-TGFβR2 WT. It counts as binding. The following applies: 1 nM HIS-TGFβR2 WT, labeled probe at Kd, 1 hour at room temperature. As to the method: The reaction is incubated for 1 hour at room temperature and the HTRF signal was measured on an Envision plate reader (Ex: 340 nm; Em: 520 nm/495 nm). Inhibition data were calculated by comparison to no enzyme control reactions for 100% inhibition and vehicle-only reactions for 0% inhibition. The final concentration of reagents in the assay are 1 nM HIS-TGFβR1 T204D or HIS-TGFβR2 WT, 0.2 nM anti-HIS detection antibody, labeled small molecule probe (at Kd) and 0.5% DMSO. Dose response curves were generated to determine the concentration required inhibiting 50% of kinase activity (IC50). Compounds were dissolved at 10 mM in dimethylsulfoxide (DMSO) and evaluated at eleven concentrations. IC50 values were derived by non-linear regression analysis.
Chain of HIS-TGFβR2 WT (P37173 23-567): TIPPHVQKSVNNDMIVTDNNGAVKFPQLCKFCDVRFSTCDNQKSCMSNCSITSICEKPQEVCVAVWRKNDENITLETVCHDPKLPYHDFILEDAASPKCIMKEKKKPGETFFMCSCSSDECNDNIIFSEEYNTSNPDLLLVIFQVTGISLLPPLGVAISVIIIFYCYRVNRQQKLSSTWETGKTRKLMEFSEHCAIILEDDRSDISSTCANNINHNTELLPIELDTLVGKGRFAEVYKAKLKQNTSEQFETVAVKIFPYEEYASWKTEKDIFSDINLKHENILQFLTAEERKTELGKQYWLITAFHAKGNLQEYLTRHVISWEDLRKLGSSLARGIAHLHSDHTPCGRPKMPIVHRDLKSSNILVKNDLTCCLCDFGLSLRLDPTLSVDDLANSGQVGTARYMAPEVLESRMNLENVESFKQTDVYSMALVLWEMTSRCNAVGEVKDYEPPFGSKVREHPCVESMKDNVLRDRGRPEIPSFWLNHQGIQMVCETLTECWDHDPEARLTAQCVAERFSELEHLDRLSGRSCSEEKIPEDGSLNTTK

For `Cc1cc(-c2n[nH]cc2-c2ccc3nccn3c2)ccc1F` [Example 48, 6-(3-(4-fluoro-3-methylphenyl)-1H-pyrazol-4-yl)imidazo[1,2-a]pyridine], the IC50 in assay [1] is 0.002 µM; in assay [2], 4.12 µM.
For `Cc1cc(-c2n[nH]cc2-c2ccc3ncc(C#N)n3c2)ccc1F` [Example 49, 6-(3-(4-fluoro-3-methylphenyl)-1H-pyrazol-4-yl)imidazo[1,2-a]pyridine-3-carbonitrile], in that order: 0.001 µM and 0.104 µM.
For `CCOC(=O)c1cnc2ccc(-c3cn(C)nc3-c3cccc(C)n3)cn12` [Example 51, ethyl 6-(1-methyl-3-(6-methylpyridin-2-yl)-1H-pyrazol-4-yl)imidazo[1,2-a]pyridine-3-carboxylate], in that order: 0.001 µM and 2.23 µM.
For `Fc1ccc(-c2n[nH]cc2-c2ccc3nccn3n2)cc1` [Example 55, 6-(3-(4-fluorophenyl)-1H-pyrazol-4-yl)imidazo[1,2-b]pyridazine], in that order: 0.006 µM and 4.93 µM.
As to `Fc1ccc(-c2n[nH]cc2-c2ccc3ncc(F)n3c2)cc1` [Example 56, 3-fluoro-6-(3-(4-fluorophenyl)-1H-pyrazol-4-yl)imidazo[1,2-a]pyridine], the figures for the half-maximal inhibitory concentration (IC50) in assay [1] and in assay [2] were 0.007 µM and 0.533 µM, respectively.
For `CCOC(=O)c1cnc2ccc(-c3c[nH]nc3-c3ccc(F)cc3)cn12` [Example 57, ethyl 6-(3-(4-fluorophenyl)-1H-pyrazol-4-yl)imidazo[1,2-a]pyridine-3-carboxylate] the same measures were 0.003 µM and 3.71 µM.
For `CC(C)(O)c1cnc2ccc(-c3c[nH]nc3-c3ccc(F)cc3)cn12` [Example 59, 2-(6-(3-(4-fluorophenyl)-1H-pyrazol-4-yl)imidazo[1,2-a]pyridin-3-yl)propan-2-ol], in that order: 0.241 µM and 5.34 µM.
For `N#Cc1cnc2ccc(-c3cn(CC(F)F)nc3-c3ccc(F)c(Cl)c3)cn12` [Example 61, 6-(3-(3-chloro-4-fluorophenyl)-1-(2,2-difluoroethyl)-1H-pyrazol-4-yl)imidazo[1,2-a]pyridine-3-carbonitrile] the same measures were 0.007 µM and 2.28 µM.
As for `Cc1cccc(-c2n[nH]c(C)c2-c2ccc3ncc(C(N)=O)n3c2)n1` [Example 64, 6-(5-methyl-3-(6-methylpyridin-2-yl)-1H-pyrazol-4-yl)imidazo[1,2-a]pyridine-3-carboxamide], the half-maximal inhibitory concentration (IC50) was 0.001 µM in assay [1] and 0.012 µM in assay [2].
For `Cc1cccc(-c2nn(C)c(C)c2-c2ccc3ncc(C(N)=O)n3c2)n1` [Example 65, 6-(1,5-dimethyl-3-(6-methylpyridin-2-yl)-1H-pyrazol-4-yl)imidazo[1,2-a]pyridine-3-carboxamide], in that order: 0.001 µM and 0.194 µM.
For `Cc1[nH]nc(-c2cccc(F)n2)c1-c1ccc2ncc(C#N)n2c1` [Example 66, 6-(3-(6-fluoropyridin-2-yl)-5-methyl-1H-pyrazol-4-yl)imidazo [1,2-a]pyridine-3-carbonitrile] the same measures were 0.001 µM and 0.277 µM.
For `CC(C)c1[nH]nc(-c2ccc(F)cc2)c1-c1ccc2ncc(C#N)n2c1` [Example 67, 6-(3-(4-fluorophenyl)-5-isopropyl-1H-pyrazol-4-yl)imidazo[1,2-a]pyridine-3-carbonitrile] the same measures were 0.004 µM and 11.1 µM.
As for `CC(C)c1[nH]nc(-c2ccc(F)cc2)c1-c1ccc2ncc(C(N)=O)n2c1` [Example 68, 6-(3-(4-fluorophenyl)-5-isopropyl-1H-pyrazol-4-yl) imidazo [1,2-a]pyridine-3-carboxamide], the figures for the IC50 in assay [1] and in assay [2] were 0.001 µM and 0.176 µM, respectively.
For `CC(C)c1[nH]nc(-c2ccc(F)cc2)c1-c1ccc2[nH]ncc2c1` [Example 70, 5-(3-(4-fluorophenyl)-5-isopropyl-1H-pyrazol-4-yl)-1H-indazole], in that order: 0.001 µM and 6.1 µM.

(Values after patent US20190292179A1 (BRISTOL-MYERS SQUIBB COMPANY, priority 2016, published 2019).)
